Test results reported in ChEMBL document CHEMBL3885861, “Open TG-GATES”.

Species on record: Rattus norvegicus
Experiment: Open TG-GATES - Regimen: Single
Format: toxicity, organism-based, Sprague-Dawley
Set-up: regimen Single, gender Male, age 6 weeks
Details: in vivo, po, 0 mg/kg, route gavage, dose level Control; for APTT / Bas / Eos / Fbg / Hb / Ht / Lym / MCHC / MCV / Mono / Neu / PT / Plat / RBC / Ret / WBC: tissue Blood; for KIDNEY_L / KIDNEY_R / KIDNEY_TOTAL: tissue Kidney; for LIVER: tissue Liver; for ALP / ALT / AST / BUN / CRE / Ca / Cl / DBIL / GLC / IP / K / LDH / Na / PL / RALB / TBIL / TC / TG / TP / gamma-GTP: tissue Plasma

## C1CCC(C(CC2CCCCN2)C2CCCCC2)CC1 (centres undefined) [PERHEXILINE]
3 h
  TERMINAL_BW: 206.4 g
  APTT: 21.3 s
  Bas: 0%
  Eos: 0.6%
  Fbg: 324 mg/dL
  Hb: 13.5 g/dL
  Ht: 39.5%
  Lym: 80.6%
  MCHC: 34%
  MCV: 62.3 fL
  Mono: 1.4%
  Neu: 16.8%
  PT: 16 s
  Plat: 117.8 x10_4/uL
  RBC: 634.6 x10_4/ul
  Ret: 6.3%
  WBC: 77.4 x10_2/uL
  KIDNEY_L: 0.9 g
  KIDNEY_R: 0.9 g
  KIDNEY_TOTAL: 1.8 g
  LIVER: 9.2 g
  ALP: 1964.4 IU/L
  ALT: 42.6 IU/L
  AST: 70.8 IU/L
  BUN: 14.8 mg/dL
  CRE: 0.1 mg/dL
  Ca: 10.9 mg/dL
  Cl: 106.8 meq/L
  DBIL: 0.002 mg/dL
  GLC: 192.6 mg/dL
  IP: 7.8 mg/dL
  K: 4.2 meq/L
  LDH: 147.6 IU/L
  Na: 140.4 meq/L
  PL: 144.4 mg/dL
  RALB: 3.2 g/dL
  TBIL: 0.014 mg/dL
  TC: 79.8 mg/dL
  TG: 63.4 mg/dL
  TP: 5.7 g/dL
  gamma-GTP: 0.8 IU/L
6 h
  TERMINAL_BW: 210.1 g
  APTT: 20.9 s
  Bas: 0%
  Eos: 0.4%
  Fbg: 317.4 mg/dL
  Hb: 13.2 g/dL
  Ht: 39.3%
  Lym: 79.8%
  MCHC: 33.6%
  MCV: 65.6 fL
  Mono: 2.2%
  Neu: 16.6%
  PT: 15.7 s
  Plat: 130.2 x10_4/uL
  RBC: 599.8 x10_4/ul
  Ret: 7.4%
  WBC: 75.5 x10_2/uL
  KIDNEY_L: 1 g
  KIDNEY_R: 1 g
  KIDNEY_TOTAL: 1.9 g
  LIVER: 9.3 g
  ALP: 1510 IU/L
  ALT: 37.8 IU/L
  AST: 67.8 IU/L
  BUN: 11.4 mg/dL
  CRE: 0.1 mg/dL
  Ca: 10.8 mg/dL
  Cl: 105.2 meq/L
  DBIL: 0 mg/dL
  GLC: 178.8 mg/dL
  IP: 9.8 mg/dL
  K: 4 meq/L
  LDH: 239.2 IU/L
  Na: 140.4 meq/L
  PL: 147.8 mg/dL
  RALB: 3 g/dL
  TBIL: 0.018 mg/dL
  TC: 81.2 mg/dL
  TG: 77.4 mg/dL
  TP: 5.6 g/dL
  gamma-GTP: 1 IU/L
9 h
  TERMINAL_BW: 206.4 g
  APTT: 21.8 s
  Bas: 0%
  Eos: 0.6%
  Fbg: 319 mg/dL
  Hb: 13.2 g/dL
  Ht: 39.2%
  Lym: 75.8%
  MCHC: 33.7%
  MCV: 64.6 fL
  Mono: 1.8%
  Neu: 20.4%
  PT: 15.6 s
  Plat: 131 x10_4/uL
  RBC: 606.6 x10_4/ul
  Ret: 7.3%
  WBC: 89.6 x10_2/uL
  KIDNEY_L: 0.9 g
  KIDNEY_R: 1 g
  KIDNEY_TOTAL: 1.9 g
  LIVER: 9.2 g
  ALP: 1422.6 IU/L
  ALT: 33.8 IU/L
  AST: 62.2 IU/L
  BUN: 11.4 mg/dL
  CRE: 0.1 mg/dL
  Ca: 10.9 mg/dL
  Cl: 105.6 meq/L
  DBIL: 0 mg/dL
  GLC: 193.8 mg/dL
  IP: 9.4 mg/dL
  K: 3.9 meq/L
  LDH: 196.4 IU/L
  Na: 139.6 meq/L
  PL: 135.6 mg/dL
  RALB: 3 g/dL
  TBIL: 0.012 mg/dL
  TC: 76.4 mg/dL
  TG: 70 mg/dL
  TP: 5.6 g/dL
  gamma-GTP: 0.8 IU/L
24 h
  TERMINAL_BW: 228.6 g
  APTT: 20.7 s
  Bas: 0%
  Eos: 0.8%
  Fbg: 315.6 mg/dL
  Hb: 13.1 g/dL
  Ht: 39.4%
  Lym: 74.8%
  MCHC: 33.3%
  MCV: 65.2 fL
  Mono: 2.4%
  Neu: 21.2%
  PT: 16 s
  Plat: 120.5 x10_4/uL
  RBC: 604.2 x10_4/ul
  Ret: 7.2%
  WBC: 89.3 x10_2/uL
  KIDNEY_L: 1 g
  KIDNEY_R: 1 g
  KIDNEY_TOTAL: 2.1 g
  LIVER: 11.2 g
  ALP: 1688.8 IU/L
  ALT: 42.6 IU/L
  AST: 66.4 IU/L
  BUN: 16.8 mg/dL
  CRE: 0.1 mg/dL
  Ca: 11 mg/dL
  Cl: 105.4 meq/L
  DBIL: 0 mg/dL
  GLC: 196.6 mg/dL
  IP: 7.1 mg/dL
  K: 4.3 meq/L
  LDH: 177.6 IU/L
  Na: 141.6 meq/L
  PL: 154.2 mg/dL
  RALB: 3.2 g/dL
  TBIL: 0.014 mg/dL
  TC: 76.8 mg/dL
  TG: 149.4 mg/dL
  TP: 5.7 g/dL
  gamma-GTP: 1 IU/L
